ChEMBL document CHEMBL3425452, “Farnesyl diphosphate synthase inhibitors with unique ligand-binding geometries” (ACS Med Chem Lett, 2015)

Tests used:
[1] = Inhibition of Trypanosoma brucei FPPS
[2] = Inhibition of Leishmania donovani FPPS
[3] = test system: Trypanosoma brucei rhodesiense; assay: Growth inhibition of Trypanosoma brucei rhodesiense

Row | Structure (SMILES) | IC50 [1] [µM] | IC50 [2] [µM] | EC50 [3] [µM]
1 | O=P(O)(O)C(O)(CCc1cccnc1)P(=O)(O)O | 33 | 5.4 | 1.7
2 | Cc1cccnc1NC(P(=O)(O)O)P(=O)(O)O | 0.23 |  | 
3 | O=P(O)(O)C(O)(Cc1cccnc1)P(=O)(O)O [RISEDRONIC ACID] | 0.3 |  | 
